According to PubChem BioAssay AID588787 (The Scripps Research Institute Molecular Screening Center, 2011):
Calls of active or inactive are those of the source.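 The calls were made as follows: active = pPAFAH enzyme ratio at or below 0.5 while fewer than two other serine hydrolases drop that low; inactive = the rest.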

Tests used:
Assay in all cases: off-target hydrolase inhibition by ABPP-MudPIT – biochemical, LC-MS/MS, mouse brain soluble proteome, selectivity assay for pPAFAH inhibitor project, late-stage follow-up (AID 588787)
Abhd4 = Abhd4 (UniProt Q8VD66); details: ABPP-MudPIT FP-biotin spectral counts, at 1 µM, hits give low values
Abhd4, sequence (Q8VD66 whole entry, looked up): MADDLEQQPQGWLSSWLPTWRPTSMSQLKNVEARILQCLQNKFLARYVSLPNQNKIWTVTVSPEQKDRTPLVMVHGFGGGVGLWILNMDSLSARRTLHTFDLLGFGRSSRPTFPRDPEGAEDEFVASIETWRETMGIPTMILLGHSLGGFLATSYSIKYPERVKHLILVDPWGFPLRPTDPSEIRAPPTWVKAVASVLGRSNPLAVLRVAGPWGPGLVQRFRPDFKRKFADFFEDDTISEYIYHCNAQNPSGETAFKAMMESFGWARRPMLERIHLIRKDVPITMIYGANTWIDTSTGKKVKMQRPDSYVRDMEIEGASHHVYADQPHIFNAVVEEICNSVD

Lypla2 = details: ABPP-MudPIT FP-biotin spectral counts, at 1 µM, hits give low values
Esd = details: ABPP-MudPIT FP-biotin spectral counts, at 1 µM, hits give low values
Acot7 = details: ABPP-MudPIT FP-biotin spectral counts, at 1 µM, hits give low values
Tpp2 = details: ABPP-MudPIT FP-biotin spectral counts, at 1 µM, hits give low values
Acot2 = details: ABPP-MudPIT FP-biotin spectral counts, at 1 µM, hits give low values
Abhd11 = details: ABPP-MudPIT FP-biotin spectral counts, at 1 µM, hits give low values
Apeh = details: ABPP-MudPIT FP-biotin spectral counts, at 1 µM, hits give low values
[1] = target: Palmitoyl-protein thioesterase ABHD10, mitochondrial (Mus musculus) (UniProt Q6PE15); details: ABPP-MudPIT FP-biotin spectral counts, at 1 µM, hits give low values
Palmitoyl-protein thioesterase ABHD10, mitochondrial (Mus musculus), sequence (Q6PE15 whole entry, looked up): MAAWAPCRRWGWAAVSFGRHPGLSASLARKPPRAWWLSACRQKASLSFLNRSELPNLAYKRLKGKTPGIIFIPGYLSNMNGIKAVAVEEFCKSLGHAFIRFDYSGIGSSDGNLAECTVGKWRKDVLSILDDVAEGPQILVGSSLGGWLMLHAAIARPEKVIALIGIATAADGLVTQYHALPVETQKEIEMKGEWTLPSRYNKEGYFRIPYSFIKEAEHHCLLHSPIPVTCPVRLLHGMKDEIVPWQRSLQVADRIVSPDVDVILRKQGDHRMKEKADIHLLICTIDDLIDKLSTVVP

Lipe = details: ABPP-MudPIT FP-biotin spectral counts, at 1 µM, hits give low values
Fasn = details: ABPP-MudPIT FP-biotin spectral counts, at 1 µM, hits give low values
Lyplal1 = details: ABPP-MudPIT FP-biotin spectral counts, at 1 µM, hits give low values
Dpp8 = details: ABPP-MudPIT FP-biotin spectral counts, at 1 µM, hits give low values
[2] = target: Acyl-protein thioesterase 1 (Mus musculus) (UniProt P97823); details: ABPP-MudPIT FP-biotin spectral counts, Lypla1, at 1 µM, hits give low values
Acyl-protein thioesterase 1 (Mus musculus), sequence (P97823 whole entry, looked up): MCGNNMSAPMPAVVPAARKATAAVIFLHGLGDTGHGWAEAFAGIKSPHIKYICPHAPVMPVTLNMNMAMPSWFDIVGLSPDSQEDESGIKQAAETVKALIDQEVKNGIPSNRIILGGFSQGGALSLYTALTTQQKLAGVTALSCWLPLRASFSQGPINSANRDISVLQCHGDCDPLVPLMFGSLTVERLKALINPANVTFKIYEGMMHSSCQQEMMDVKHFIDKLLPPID

Pafah1b3 = details: ABPP-MudPIT FP-biotin spectral counts, at 1 µM, hits give low values
[3] = target: Platelet-activating factor acetylhydrolase (Mus musculus) (UniProt Q60963); details: ABPP-MudPIT FP-biotin spectral counts, Pla2g7 (pPAFAH), at 1 µM, hits give low values
Platelet-activating factor acetylhydrolase (Mus musculus), sequence (Q60963 whole entry, looked up): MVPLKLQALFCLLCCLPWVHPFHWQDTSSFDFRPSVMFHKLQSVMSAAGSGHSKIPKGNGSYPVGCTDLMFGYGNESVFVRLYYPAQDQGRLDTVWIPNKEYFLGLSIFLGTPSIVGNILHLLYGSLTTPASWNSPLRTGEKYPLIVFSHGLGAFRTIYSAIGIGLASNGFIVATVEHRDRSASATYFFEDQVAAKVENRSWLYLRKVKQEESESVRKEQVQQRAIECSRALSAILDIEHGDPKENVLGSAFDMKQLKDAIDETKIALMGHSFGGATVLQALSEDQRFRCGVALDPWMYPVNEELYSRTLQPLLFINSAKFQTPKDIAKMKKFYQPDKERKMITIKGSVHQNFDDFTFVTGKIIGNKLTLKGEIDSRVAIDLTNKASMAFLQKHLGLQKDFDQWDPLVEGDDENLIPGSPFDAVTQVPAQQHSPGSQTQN

Dpp9 = details: ABPP-MudPIT FP-biotin spectral counts, at 1 µM, hits give low values
Pla2g15 = details: ABPP-MudPIT FP-biotin spectral counts, at 1 µM, hits give low values
Es1 = details: ABPP-MudPIT FP-biotin spectral counts, at 1 µM, hits give low values
[4] = target: Prolyl endopeptidase (Mus musculus) (UniProt Q9QUR6); details: ABPP-MudPIT FP-biotin spectral counts, Prep, at 1 µM, hits give low values
Prolyl endopeptidase (Mus musculus), sequence (Q9QUR6 whole entry, looked up): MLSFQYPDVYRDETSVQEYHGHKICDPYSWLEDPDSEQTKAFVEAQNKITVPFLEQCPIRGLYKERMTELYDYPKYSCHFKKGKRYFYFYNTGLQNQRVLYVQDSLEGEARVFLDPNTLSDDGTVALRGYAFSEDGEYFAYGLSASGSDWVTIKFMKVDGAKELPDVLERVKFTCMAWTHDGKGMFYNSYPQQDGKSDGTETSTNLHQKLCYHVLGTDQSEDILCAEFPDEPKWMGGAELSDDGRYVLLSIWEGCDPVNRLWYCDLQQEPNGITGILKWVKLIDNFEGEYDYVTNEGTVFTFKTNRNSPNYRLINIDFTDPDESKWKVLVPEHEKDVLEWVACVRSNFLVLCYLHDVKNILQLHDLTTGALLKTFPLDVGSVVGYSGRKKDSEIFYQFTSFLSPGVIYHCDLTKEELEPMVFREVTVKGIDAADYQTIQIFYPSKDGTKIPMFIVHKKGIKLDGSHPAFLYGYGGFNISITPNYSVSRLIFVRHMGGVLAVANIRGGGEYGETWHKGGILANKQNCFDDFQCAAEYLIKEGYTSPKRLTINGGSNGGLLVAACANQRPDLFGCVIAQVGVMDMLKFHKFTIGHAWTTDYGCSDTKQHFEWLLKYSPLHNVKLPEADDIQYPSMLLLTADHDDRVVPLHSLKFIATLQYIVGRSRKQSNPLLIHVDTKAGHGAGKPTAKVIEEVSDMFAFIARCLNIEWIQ

Pme1 = details: ABPP-MudPIT FP-biotin spectral counts, at 1 µM, hits give low values
Acot1 = details: ABPP-MudPIT FP-biotin spectral counts, at 1 µM, hits give low values
Pafah1b2 = details: ABPP-MudPIT FP-biotin spectral counts, at 1 µM, hits give low values
Prepl = details: ABPP-MudPIT FP-biotin spectral counts, at 1 µM, hits give low values
Rbbp9 = details: ABPP-MudPIT FP-biotin spectral counts, at 1 µM, hits give low values
Magl = details: ABPP-MudPIT FP-biotin spectral counts, at 1 µM, hits give low values

Measured: ratio of spectral counts to DMSO

Cc1cc(N2CCN(C(=O)Oc3ccc(-c4ccccc4)cn3)CC2)c2ccccc2n1
active: [3] 0 | Es1 0
inactive: Abhd4 0.8 | Lypla2 1.3 | Esd 1.1 | Acot7 0.8 | Tpp2 0.8 | Acot2 1.1 | Abhd11 1.2 | Apeh 1.1 | [1] 1.1 | Lipe 0.9 | Fasn 1.1 | Lyplal1 1.1 | Dpp8 1.1 | [2] 1.1 | Pafah1b3 1.2 | Dpp9 1.3 | Pla2g15 1.1 | [4] 1.2 | Pme1 1.1 | Acot1 1.1 | Pafah1b2 1.4 | Prepl 1.1 | Rbbp9 1.1 | Magl 0.8
